Publication PMC6744390 (Drug Metabolism and Disposition, 2019)

Tests used:
plasma proteins = test: Plasma protein binding by high-throughput equilibrium dialysis; type: in vitro ADME, dog; settings: Mann–Whitney U test, n = 6 per group
[1] = as above; type: in vitro ADME, dog; settings: both, dog, plasma

With Cc1ccc(-c2cc(C(F)(F)F)nn2-c2ccc(S(N)(=O)=O)cc2)cc1 [celecoxib] the “difference in plasma protein binding between H1 and H2 allele plasma” value (plasma proteins) was “No significant difference” and the fraction unbound at 4 h, 4 µM [1] was < 0.02.
In the case of COc1c(C)c2c(c(O)c1C/C=C(\C)CCC(=O)O)C(=O)OC2 [mycophenolic acid], the “difference in plasma protein binding between H1 and H2 allele plasma” value (plasma proteins) is reported as “No significant difference”.
